The supplement of paper PMC10307832

Compound: C=CC(=O)Nc1cc(-n2c(=O)ccc3cnc4ccc(-c5ccc(NS(C)(=O)=O)cc5)cc4c32)ccc1C [BMX-IN-1]
Experiment: relative viability (nuclei count vs DMSO), 5 days (fraction); higher = more cells survive
Procedure, shortened: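 A plate was accepted only when its control CV was below 25% and the cells had doubled at least once. Viability is defined from nuclear counts as treated wells divided by vehicle wells, with the median taken across plates. That median covers lung cancer cell lines grown in 1536-well plates, dosed by pinning at five √10-spaced library-drug concentrations, and counted in MetaXpress from 4× Hoechst images after 5 days.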

| Cell Line | relative viability (0.02 µM) | relative viability (0.2 µM) | relative viability (0.6325 µM) | relative viability (2 µM) |
| --- | --- | --- | --- | --- |
| 201T | 1.11 | 0.996 | 1.05 | 1.03 |
| A549 | 1.17 | 1.17 | 1.05 | 1.07 |
| A-427 | 1.08 | 1.12 | 1.17 | 1.03 |
| ABC-1 | 1.05 | 1.02 | 1.01 | 1.05 |
| BEN | 1.17 | 1.27 | 0.861 | 1.01 |
| CAL-12T | 1.08 | 0.995 | 1.03 | 0.989 |
| COR-L23 | 1.35 | 1.16 | 1.17 | 1.07 |
| COR-L 105 | 1.07 | 0.937 | 1.3 | 0.961 |
| Calu-6 | 1.14 | 1.06 | 1.2 | 0.999 |
| ChaGo-K-1 | 1.14 | 1.05 | 0.963 | 1.02 |
| EBC-1 | 1.06 | 0.952 | 1.14 | 0.964 |
| EKVX | 1.02 | 0.944 | 1.02 | 1.01 |
| EMC-BAC-2 | 1 | 1.13 | 1.07 | 0.95 |
| EPLC-272H | 1.01 | 0.954 | 0.874 | 0.952 |
| H3255 | 1.08 | 0.974 | 1.12 | 1.02 |
| HARA | 1.05 | 1.04 | 1.08 | 1.08 |
| HCC-15 | 1.11 | 1.1 | 1.11 | 1.13 |
| HCC-44 | 1.03 | 1.06 | 1.13 | 0.998 |
| HCC-78 | 1.01 | 1.08 | 1.02 | 0.952 |
| HCC-366 | 1.13 | 1.09 | 1.05 | 1.04 |
| HCC-827 | 1.05 | 1.06 | 1.09 | 1.04 |
| HOP-62 | 1.1 | 1.08 | 1.08 | 1.06 |
| IA-LM | 1 | 0.997 | 1.04 | 1.02 |
| LC-2-ad | 1.1 | 1.05 | 1.08 | 1.02 |
| LCLC-97TM1 | 1.04 | 1.11 | 1.12 | 1.02 |
| LCLC-103H | 1.09 | 1.1 | 1.07 | 1.1 |
| LK-2 | 1.31 | 1.24 | 0.978 | 1.02 |

| Cell Line | relative viability (0.02 µM) | relative viability (0.2 µM) | relative viability (0.6325 µM) | relative viability (2 µM) |
| --- | --- | --- | --- | --- |
| LOU-NH91 |  | 0.973 | 1.08 | 0.989 |
| LU99A | 0.986 | 0.95 | 1.06 | 0.962 |
| LXF-289 | 1.06 | 1.05 | 1.01 | 1.02 |
| NCI-H23 | 0.963 | 1.1 | 1.16 | 1.09 |
| NCI-H322M | 1.07 | 0.905 | 0.967 | 0.943 |
| NCI-H358 | 1.12 | 0.962 | 1.04 | 0.914 |
| NCI-H441 | 1.19 | 1.31 | 1.28 | 1.17 |
| NCI-H460 | 1.24 | 1.09 | 1.04 | 1.07 |
| NCI-H520 | 1.26 | 1.02 | 1.1 | 1.04 |
| NCI-H522 | 0.882 | 0.906 | 1.04 | 0.938 |
| NCI-H596 | 1.12 | 0.951 | 1.02 | 0.96 |
| NCI-H647 | 1.32 | 1.07 | 0.957 | 0.96 |
| NCI-H650 | 0.905 | 1.01 | 1.02 | 0.951 |
| NCI-H661 | 0.967 | 1.03 | 1.01 | 0.933 |
| NCI-H727 | 1 | 1.14 | 0.964 | 0.94 |
| NCI-H838 | 1.25 | 0.957 | 1.02 | 0.989 |
| NCI-H1299 | 1.09 | 1.08 | 1.07 | 1.06 |
| NCI-H1355 | 1.03 | 1.06 | 1.11 | 1.12 |
| NCI-H1395 | 1.01 | 0.951 | 0.97 | 0.892 |
| NCI-H1437 | 1.11 | 0.984 | 1.03 | 1.03 |
| NCI-H1563 | 0.955 | 0.943 | 1.04 | 0.964 |
| NCI-H1623 | 0.995 | 1.01 | 0.988 | 0.882 |
| NCI-H1648 | 0.937 | 0.878 | 0.792 | 0.829 |
| NCI-H1650 | 1 | 0.896 | 1.01 | 0.772 |
| NCI-H1651 | 1.11 | 1.08 | 1.07 | 0.991 |
| NCI-H1666 | 1.05 | 1.06 | 1.11 | 1.1 |
| NCI-H1703 | 1.1 | 0.914 | 0.862 | 0.805 |

| Cell Line | relative viability (0.02 µM) | relative viability (0.2 µM) | relative viability (0.6325 µM) | relative viability (2 µM) |
| --- | --- | --- | --- | --- |
| NCI-H1734 | 1.06 | 1.06 | 1.11 | 1.02 |
| NCI-H1755 | 1.01 | 1.1 | 1.08 | 0.984 |
| NCI-H1792 | 1.03 | 1.2 | 1.5 | 0.991 |
| NCI-H1793 | 1.13 | 0.995 | 1.13 | 1.05 |
| NCI-H1915 | 1.08 | 1.06 | 1.07 | 1.08 |
| NCI-H1944 | 1.07 | 1.08 | 1.18 | 0.947 |
| NCI-H1975 | 1.17 | 0.965 | 1.14 | 0.872 |
| NCI-H1993 | 1.01 | 1.09 | 0.973 | 0.882 |
| NCI-H2009 | 1.08 | 1.07 | 1.09 | 1.02 |
| NCI-H2023 | 1.37 | 1.19 | 1.13 | 1.08 |
| NCI-H2085 | 1.03 | 0.997 | 1 | 1.01 |
| NCI-H2087 | 1.03 | 1.14 | 1.14 | 1.15 |
| NCI-H2126 | 1.09 | 1.05 | 1.08 | 1.02 |
| NCI-H2170 | 1.14 | 1.05 | 1.05 | 1.02 |
| NCI-H2228 | 1.2 | 1.18 | 0.975 | 1.05 |
| NCI-H2342 | 1.04 | 1.03 | 1.06 | 0.939 |
| NCI-H2347 | 1.04 | 0.967 | 1.14 | 1.09 |
| NCI-H2405 | 0.982 | 1.01 | 1.09 | 1.04 |
| NCI-H3122 | 1.07 | 1.06 | 1.04 | 1.04 |
| PC-3 [JPC-3] | 1.08 | 1.12 | 1.11 | 1.06 |
| PC-14 | 1.12 | 1.06 | 1.22 | 1 |
| RERF-LC-KJ | 1.14 | 1.04 | 1.03 | 1.03 |
| SK-LU-1 | 1.22 | 1.23 | 1.16 | 1.1 |
| SW 900 | 0.971 | 0.886 | 0.911 | 1.09 |
| SW 1573 | 1.13 | 1.08 | 1.09 | 0.904 |
| UMC-11 | 1.11 | 1.1 | 1.09 | 1.03 |
